Measured values reported in patent US10647711B2, “Azepin-2-one derivatives as RSV inhibitors” (Enanta Pharmaceuticals, Inc., priority 2017, dated 2020).

These molecules were tested on Human RSV-A (“Long” strain) (assay: RSV-A in vitro cytoprotection assay in HEp-2 cells (ATPlite readout)). Details: human respiratory syncytial virus, 96 h, 4-day incubation, ATPlite cell viability (CPE protection).
Type: cell-based
Source text: RSV is a single stranded negative sense RNA virus that causes respiratory tract infections which can be dangerous to infants, the elderly, and immunosuppressed individuals. Currently there is no vaccine, and therapeutic options are both costly and of limited effectiveness. These approved treatments are Ribavirin, and Palivizumab/Synagis (a monoclonal antibody). RSV has two genotypes, A and B, which differ primarily in the structure of the virus' surface “G” attachment protein. Our current primary screen focusses on RSV-A and uses an in vitro cytoprotection assay where compounds are added in 2-fold dilutions to cells which are then subjected to fully replicative viral particles. Cell viability is measured several days later along with separate measurements of compound cytotoxicity. This report focuses on the results of our most recent screening of compounds.
HEp-2 cells, (originally derived from tumors grown in irradiated-cortisonised weanling rats that had been injected with epidermoid carcinoma tissue from a person's larynx, but later found to be indistinguishable from HeLa cells by PCR DNA analysis), were used for the culturing of genotype A, “Long” strain RSV. Flasks were inoculated with RSV and viral stocks were collected once cytopathic effect (CPE) was greater than 90%. Viral stocks in 25% sucrose media were snap frozen using liquid nitrogen to increase viral stability. Viral stock titers were quantified by tissue culture infectious dose 50% (TCID50) using 8,000 cells per well and 3-fold viral dilutions across a 96-well plate, cultured for 4 days.
Following extensive parameter testing, the final assay is run as follows: HEp-2 cells are seeded into the inner 60 wells of a 96-well plate at 8,000 cells per well in a volume of 50 μL using Growth Media (DMEM without phenol red, 1% L-Glut, 1% Penn/Strep, 1% nonessential amino acids, 10% FBS). 2-fold serial dilutions of control and test compounds are added to the wells in duplicate in a total volume of 25 μL. Viral stock is then added to the wells in a volume of […] the total volume of each well to 100 μL. Each 96-well plate has a control column of 6 wells with cells and virus but no compound (negative control, max CPE), a column with cells but no compound or virus (positive control, minimum CPE), and a column with no cells or virus or compound (background plate/reagent control). The control wells with cells but no virus are given an additional 25 uL of growth media containing an equal quantity of sucrose as those wells receiving the viral stock in order to keep consistent in media and volume conditions. The outer wells of the plate are filled with 125 μL of growth media to act as a thermal and evaporative moat around the test wells. Following a 4-day incubation period, the plates are read using ATPlite (50 uL added per well), which quantifies the amount of ATP (a measure of cell health) present in each well. Assay plates are read using the Envision luminometer. […] EC50 ranges are as follows: A<1 μM; B 1-5 μM; C>5 μM.

Row | Structure (SMILES) | EC50 [nM]
1 | O=C(N[C@H]1C=C(c2ccccc2)c2ccccc2NC1=O)c1ccccc1 [Example 17, (5)-N-(2-oxo-5-phenyl-2,3-dihydro-1H-benzo[b]azepin-3-yl)benzamide] | > 5000
2 | O=C(Nc1ccccc1F)N[C@H]1C=C(c2ccccc2)c2ccccc2NC1=O [Example 15, (S)-1-(2-fluorophenyl)-3-(2-oxo-5-phenyl-2,3-dihydro-1H-benzo[b]azepin-3-yl)urea] | > 5000
3 | O=C1Nc2ccccc2C(c2ccccc2)=C[C@@H]1Nc1nnc(-c2ncc(C3CC3)cc2N2CCOCC2)o1 [Example 5] | < 1000
4 | O=C1Nc2ccccc2C(c2ccccc2)=C[C@@H]1Nc1nnc(-c2ncc(C(F)(F)F)cc2N2CCOCC2)o1 [Example 10] | < 1000
5 | O=C1Nc2ccccc2C(c2ccccc2)=C[C@@H]1Nc1nnc(-c2cccnc2N2CCOCC2)o1 [Example 4] | 1000 to 5000
6 | O=C1Nc2ccccc2C(c2ccccc2)=C[C@@H]1Nc1nnc(-c2ncc(Br)cc2N2CCOCC2)o1 [Example 7] | < 1000
7 | N#Cc1cnc(-c2nnc(N[C@H]3C=C(c4ccccc4)c4ccccc4NC3=O)o2)c(N2CCOCC2)c1 [Example 8] | < 1000
8 | C#Cc1cnc(-c2nnc(N[C@H]3C=C(c4ccccc4)c4ccccc4NC3=O)o2)c(N2CCOCC2)c1 [Example 6] | < 1000
9 | O=C1Nc2ccccc2C(c2ccccc2)=C[C@@H]1Nc1nnc(-c2ncc(C3CCC3)cc2N2CCOCC2)o1 [Example 9] | 1000 to 5000
10 | O=C1Nc2ccccc2C(c2ccccc2)=C[C@H]1Nc1nnc(-c2nc(C3CC3)sc2N2CCOCC2)o1 [Example 12, (R)-3-((5-(2-cyclopropyl-5-morpholinothiazol-4-yl)-1,3,4-oxadiazol-2-yl)amino)-5-phenyl-1,3-dihydro-2H-benzo[b]azepin-2-one] | < 1000
11 | O=C1Nc2ccccc2C(c2ccccc2)=C[C@@H]1Nc1nnc(-c2ccc(N3CCOCC3)cc2F)o1 [Example 3] | 1000 to 5000
12 | O=C1Nc2ccccc2C(c2ccccc2)=C[C@@H]1Nc1nnc(-c2nc(-c3cccnc3)sc2N2CCOCC2)o1 [Example 13, (S)-3-((5-(5-morpholino-2-(pyridin-3-yl)thiazol-4-yl)-1,3,4-oxadiazol-2-yl)amino)-5-phenyl-1,3-dihydro-2H-benzo[b]azepin-2-one] | < 1000
13 | O=C1Nc2ccccc2C(c2ccccc2)=C[C@@H]1Nc1nnc(-c2cn(-c3ccccn3)nc2N2CCOCC2)o1 [Example 2] | 1000 to 5000
14 | O=C1Nc2ccccc2C(c2ccccc2)=C[C@H]1Nc1nnc(-c2nc(-c3cccnc3)sc2N2CCOCC2)o1 [Example 14, (R)-3-((5-(5-morpholino-2-(pyridin-3-yl)thiazol-4-yl)-1,3,4-oxadiazol-2-yl)amino)-5-phenyl-1,3-dihydro-2H-benzo[b]azepin-2-one] | 1000 to 5000
15 | O=C1Nc2ccccc2C(c2ccccc2)=C[C@@H]1Nc1nc2ccccc2o1 [Example 16, (S)-3-(benzo[d]oxazol-2-ylamino)-5-phenyl-1,3-dihydro-2H-benzo[b]azepin-2-one] | > 5000
16 | O=C1Nc2ccccc2C(c2ccccc2)=C[C@@H]1Nc1nnc(-c2ccc(F)cc2)o1 [Example 1, (S)-3-((5-(4-fluorophenyl)-1,3,4-oxadiazol-2-yl)amino)-5-phenyl-1,3-dihydro-2H-benzo[b]azepin-2-one] | 1000 to 5000
17 | O=C1Nc2ccccc2C(c2ccccc2)=C[C@@H]1Nc1nnc(-c2nc(C3CC3)sc2N2CCOCC2)o1 [Example 11, (S)-3-((5-(2-cyclopropyl-5-morpholinothiazol-4-yl)-1,3,4-oxadiazol-2-yl)amino)-5-phenyl-1,3-dihydro-2H-benzo[b]azepin-2-one] | < 1000
